16 molecules from patent US12173007B2, “Imidazopyridazine IL-17 inhibitor compounds” (Janssen Pharmaceutica NV, priority 2021, dated 2024) can be followed below.

Test [1] has as its target IL-17A(FLAG-Tagged): IL-17RA(His-Tagged) binding (Homo sapiens, UniProt Q16552, K93Q). Description: IL-17A(FLAG-tagged):IL-17RA(His-tagged) binding disruption Eu-HTRF assay, Protocol 1. The note with it: FLAG-IL-17A 2.5 nM; average if tested more than once. The source says: IL-17A(FLAG-Tagged): IL-17RA(His-Tagged) Binding Disruption Eu-HTRF Assay
An antibody directed against the FLAG tag of IL-17A (SEQ ID NO: 1) is labeled with the HTRF donor chromophore (Europium-cryptate). IL-17A is present as a dimer that is “locked into” this quaternary structure due to the formation of loop-spanning […] disulfide bridges. The construct of IL-17RA used in the assay excludes the […] portion of the receptor and is fused to a C-terminal 10×His tag (SEQ ID NO:2). An antibody directed against the His tag of the IL-17RA chimera is labeled with the HTRF acceptor chromophore (“D2”). The fluorescence-resonance energy transfer (FRET) depends on the vicinity of the donor chromophore to the acceptor, and interruption of the binding between the IL-17A and IL-17RA causes the reduction/loss of FRET. Therefore, this assay allows to evaluate the compound effect on the binding IL-17A and IL-17RA by monitoring the fluorescence intensity of donor vs acceptor. The assay was run using either Protocol 1 or Protocol 2 as described below.
Protocol 1. 40 nl of 2-fold serial diluted compound solution for total 22 dilution points is added into each well of a 1536-well, white, low-volume, non-binding plate (Greiner #782904), then 2 μl of FLAG tagged IL-17A at 2×final concentration (2.5 nM) in solution of PBS+0.01% Triton-X100 is added to each well. The assay plate is briefly centrifuged then incubated for 1 h at rt. A mixed solution is prepared containing 2×5 nM 10HIS×IL-17RA, 2×2.5 nM Eu-anti-FLAG (CISBIO), 2×5 nM D2-anti-HIS (CISBIO) in PBS+0.01% Triton-X100+200 mM Potassium Fluoride (Sigma 60238) and 2 μl of mix is added to each well of the assay plate. The plate is briefly centrifuged then incubated for 2 h at rt. The HTRF intensities at the wavelength of donor (620 nm) and acceptor (665 nm) are measured using BMG Pherastar. The ratio between intensities at two wavelengths is calculated and plotted against the compound concentration and the data is fitted to a one-site competition model to yield IC50 of the compound.

Test [2] relates to IL-17A-induced G-CSF production in human normal keratinocyte (NHK). Description: NHK assay: IL-17A-induced G-CSF production in normal human keratinocytes. The note with it: Homo sapiens, Keratinocyte, 24 h, IL-17A 5 ng/mL, G-CSF by HTRF, average if tested more than once. It is filed as cell-based. The method in brief: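 Stimulus rhIL-17A 5 ng/mL final, premixed 1 h rt with compound; adult NHK, 5% FBS, 0.2% DMSO. Viability by CellTiter-Glo vs DMSO.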
On the technique in general: In TR-FRET formats the signal depends on donor and acceptor labels being close together.

A value given as a limit tells only on which side of the number the result lay.

Chain of UniProt Q16552 (Q16552 with tags, fused parts or gaps K93Q): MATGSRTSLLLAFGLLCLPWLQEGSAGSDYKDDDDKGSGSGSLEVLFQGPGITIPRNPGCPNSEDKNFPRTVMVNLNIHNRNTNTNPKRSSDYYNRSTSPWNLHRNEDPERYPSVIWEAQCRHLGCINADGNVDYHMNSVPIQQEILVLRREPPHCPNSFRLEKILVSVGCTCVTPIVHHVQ

By IC50 is commonly meant the point on the concentration scale where inhibition reaches its midpoint. For the molecule `O=C(N[C@H](c1cn2ncc(CN3CC(F)(F)CNC3=O)cc2n1)C1CCC(F)(F)CC1)c1nonc1OCC(F)F` [Example 26, (S)—N-((7-((5,5-Difluoro-2-oxotetrahydropyrimidin-1(2H)-yl)methyl)imidazo[1,2-b]pyridazin-2-yl)(4,4-difluorocyclohexyl)methyl)-4-(2,2-difluoroethoxy)-1,2,5-oxadiazole-3-carboxamide], the IC50 in test [1] and in test [2] was < 50 nM throughout.

With `[2H]C([2H])([2H])C([2H])([2H])n1nccc1C(=O)N[C@H](c1cn2ncc([C@@H](COC)N3CC(F)(F)CNC3=O)cc2n1)C1CCC(F)(F)CC1` [Example 13, N—((S)-(7-((S)-1-(5,5-Difluoro-2-oxotetrahydropyrimidin-1(2H)-yl)-2-methoxyethyl)imidazo[1,2-b]pyridazin-2-yl)(4,4-difluorocyclohexyl)methyl)-1-(ethyl-d5)-1H-pyrazole-5-carboxamide], the IC50 in test [1] was 50 to 100 nM; in test [2], < 50 nM.

On to `[2H]C([2H])([2H])C([2H])([2H])n1nccc1C(=O)N[C@H](c1cn2ncc([C@@H](C3CC3)N3CC(F)(F)CNC3=O)cc2n1)C1CCC(F)(F)CC1` [Example 9, N—((S)-(7-((R)-Cyclopropyl(5,5-difluoro-2-oxotetrahydropyrimidin-1(2H)-yl)methyl)imidazo[1,2-b]pyridazin-2-yl)(4,4-difluorocyclohexyl)methyl)-1-(ethyl-d5)-1H-pyrazole-5-carboxamide], for which the concentration for half-maximal inhibition (IC50) in test [1] and in test [2] was < 50 nM in each case.

With `O=C(N[C@H](c1cn2ncc(CN3CCCCNC3=O)cc2n1)C1CCC(F)(F)CC1)c1nonc1C1CC1` [Example 30, (S)-4-Cyclopropyl-N-((4,4-difluorocyclohexyl)(7-((2-oxo-1,3-diazepan-1-yl)methyl)imidazo[1,2-b]pyridazin-2-yl)methyl)-1,2,5-oxadiazole-3-carboxamide], the figures for the IC50 in test [1] and in test [2] were 50 to 100 nM and > 100 nM, respectively.

`CC(C)n1ncnc1C(=O)N[C@H](c1cn2ncc(CN3CC(F)(F)CNC3=O)cc2n1)C1CCC(F)(F)CC1` [Example 23, (S)—N-((7-((5,5-Difluoro-2-oxotetrahydropyrimidin-1(2H)-yl)methyl)imidazo[1,2-b]pyridazin-2-yl)(4,4-difluorocyclohexyl)methyl)-1-isopropyl-1H-1,2,4-triazole-5-carboxamide]: the half-inhibitory concentration (IC50) in test [1] and in test [2] was > 100 nM in each case.

As for `CC(C)(OC[C@H](NC(=O)c1nonc1C1CC1)c1cn2ncc(CN3CC(F)(F)CNC3=O)cc2n1)C(F)(F)F` [Example 17, (R)-4-Cyclopropyl-N-(1-(7-((5,5-difluoro-2-oxotetrahydropyrimidin-1(2H)-yl)methyl)imidazo[1,2-b]pyridazin-2-yl)-2-((1,1,1-trifluoro-2-methylpropan-2-yl)oxy)ethyl)-1,2,5-oxadiazole-3-carboxamide], the IC50 in test [1] and in test [2] was < 50 nM each time.

Take `CC(C)n1nccc1C(=O)N[C@H](c1cn2ncc([C@@H](C3CC3)N3CC(F)(F)CNC3=O)cc2n1)C1CCC(F)(F)CC1` [Example 10, N—((S)-(7-((R)-Cyclopropyl(5,5-difluoro-2-oxotetrahydropyrimidin-1(2H)-yl)methyl)imidazo[1,2-b]pyridazin-2-yl)(4,4-difluorocyclohexyl)methyl)-1-isopropyl-1H-pyrazole-5-carboxamide]: the IC50 in test [1] is 50 to 100 nM; in test [2], < 50 nM.

In the case of `O=C(N[C@H](c1cn2ncc([C@@H](C3CC3)N3CC(F)(F)CNC3=O)cc2n1)C1CCC(F)(F)CC1)c1nonc1C1CC1` [Example 7, 4-Cyclopropyl-N—((S)-(7-((R)-cyclopropyl(5,5-difluoro-2-oxotetrahydropyrimidin-1(2H)-yl)methyl)imidazo[1,2-b]pyridazin-2-yl)(4,4-difluorocyclohexyl)methyl)-1,2,5-oxadiazole-3-carboxamide], the IC50 in test [1] and in test [2] was < 50 nM throughout.

`O=C(N[C@H](c1cn2ncc(CN3CC(F)(F)CNC3=O)cc2n1)C1CCC(F)(F)CC1)c1cnn(CCC(F)(F)F)n1` [Example 27, (S)—N-((7-((5,5-Difluoro-2-oxotetrahydropyrimidin-1(2H)-yl)methyl)imidazo[1,2-b]pyridazin-2-yl)(4,4-difluorocyclohexyl)methyl)-2-(3,3,3-trifluoropropyl)-2H-1,2,3-triazole-4-carboxamide]: the IC50 in test [1] and in test [2] was > 100 nM in each case.

As to `CC(C)n1nccc1C(=O)N[C@H](c1cn2ncc(CN3CC(F)(F)CNC3=O)cc2n1)C1CCC(F)(F)CC1` [Example 21, (S)—N-((7-((5,5-Difluoro-2-oxotetrahydropyrimidin-1(2H)-yl)methyl)imidazo[1,2-b]pyridazin-2-yl)(4,4-difluorocyclohexyl)methyl)-1-isopropyl-1H-pyrazole-5-carboxamide], the results for the half-inhibitory concentration (IC50) in test [1] and in test [2] were > 100 nM and < 50 nM, respectively.

Turning to `O=C(N[C@H](c1cn2ncc(CN3CC(C(F)(F)F)CNC3=O)cc2n1)C1CCC(F)(F)CC1)c1nonc1C1CC1` (single isomer, unassigned) [Example 6, 4-Cyclopropyl-N—((S)-(4,4-difluorocyclohexyl)(7-(((R*)-2-oxo-5-(trifluoromethyl)tetrahydropyrimidin-1(2H)-yl)methyl)imidazo[1,2-b]pyridazin-2-yl)methyl)-1,2,5-oxadiazole-3-carboxamide], the half-inhibitory concentration (IC50) in test [1] and in test [2] was > 100 nM in each case.

As to `O=C(N[C@H](c1cn2ncc(CN3CC(F)(F)CNC3=O)cc2n1)C1CCC(F)(F)CC1)c1cnn(CC2CC2)n1` [Example 24, (S)-2-(Cyclopropylmethyl)-N-((7-((5,5-difluoro-2-oxotetrahydropyrimidin-1(2H)-yl)methyl)imidazo[1,2-b]pyridazin-2-yl)(4,4-difluorocyclohexyl)methyl)-2H-1,2,3-triazole-4-carboxamide], the IC50 in test [1] and in test [2] was > 100 nM throughout.

Regarding `O=C(N[C@H](c1cn2ncc(CN3CC(F)(F)CNC3=O)cc2n1)C1CCC(F)(F)CC1)c1nonc1C1CC1` [Example 20, (S)-4-Cyclopropyl-N-((7-((5,5-difluoro-2-oxotetrahydropyrimidin-1(2H)-yl)methyl)imidazo[1,2-b]pyridazin-2-yl)(4,4-difluorocyclohexyl)methyl)-1,2,5-oxadiazole-3-carboxamide], the IC50 in test [1] and in test [2] was < 50 nM in each case.

Turning to `Cc1nonc1C(=O)N[C@H](c1cn2ncc(CN3CC(C)(C)CNC3=O)cc2n1)C1CCC(F)(F)CC1` [Example 32, (S)—N-((4,4-Difluorocyclohexyl)(7-((5,5-dimethyl-2-oxotetrahydropyrimidin-1(2H)-yl)methyl)imidazo[1,2-b]pyridazin-2-yl)methyl)-4-methyl-1,2,5-oxadiazole-3-carboxamide], the IC50 in test [1] and in test [2] was > 100 nM each time.

Consider `CC(c1cnn2cc([C@@H](NC(=O)c3nonc3C3CC3)C3CCC(F)(F)CC3)nc2c1)N1CC(F)(F)CNC1=O` (single isomer, unassigned) [Example 92, 4-Cyclopropyl-N—((S)-(7-((S*)-1-(5,5-difluoro-2-oxotetrahydropyrimidin-1(2H)-yl)ethyl)imidazo[1,2-b]pyridazin-2-yl)(4,4-difluorocyclohexyl)methyl)-1,2,5-oxadiazole-3-carboxamide], for which the IC50 in test [1] and in test [2] was > 100 nM in each case.

Regarding `[2H]C([2H])([2H])C([2H])([2H])n1nccc1C(=O)N[C@H](c1cn2ncc(CN3CC(F)(F)CNC3=O)cc2n1)C1CCC(F)(F)CC1` [Example 25, (S)—N-((7-((5,5-Difluoro-2-oxotetrahydropyrimidin-1(2H)-yl)methyl)imidazo[1,2-b]pyridazin-2-yl)(4,4-difluorocyclohexyl)methyl)-1-(ethyl-d5)-1H-pyrazole-5-carboxamide], the IC50 in test [1] is 50 to 100 nM; in test [2], < 50 nM.
